US20120295802A1, “METHODS AND COMPOSITIONS FOR CANCER TREATMENT RELATING TO BRCA1 BRCT DOMAIN RECOGNITION OF PHOSPHORYLATED BACH1” (priority 2004, published 2012)
“Also recorded” adds a separate entry of the source.

Assays:
[1] = tested on: optimal tandem BRCT domain-interacting phosphopeptide, YDIpSQVFPF, or its non-phosphorylated counterpart; assay: Peptide binding: in vitro translated [35S] BRCA1 BRCT constructs on bead-immobilized phosphorylated or non-phosphorylated peptide; conditions: in vitro transcribed and translated protein; for binding to non-phosphorylated peptide: bead-immobilized biotinylated non-phosphorylated peptide; for binding to phosphorylated peptide: bead-immobilized biotinylated phosphopeptide, SDS-PAGE and autoradiography
Procedure: An optimal phosphopeptide for binding the BRCA1 BRCTs was determined by oriented peptide library screening as described previously. This peptide was synthesized in both its phosphorylated and non-phosphorylated form with a biotin group at the N-terminus using N-α-FMOC-protected amino acids and standard BOP/HOBt coupling chemistry. These peptides were conjugated to streptavidin coated beads (Sigma-Aldrich). The wild-type and mutant BRCA1 BRCT domain-containing constructs (residues 1313-1863) were transcribed and translated in vitro in the presence of [^35S]-methionine using the TNT kit (Promega). The bead-immobilized peptides (10 μL of beads) were added to 10 μL of the in vitro translated [^35S]-labeled protein pool in 150 μL binding buffer (50 mM Tris-HCl (pH7.6), 150 mM NaCl, 0.5% NP-40, 1 mM EDTA, 2 mM DTT, 8 μg/mL pepstatin, 8 μg mL^−1 aprotinin, 8 μg mL^−1 leupeptin, 800 μM Na3VO4, 25 mM NaF). After incubation at 4° C. for 3 hours, the beads were washed three times with 200 μL of binding buffer prior to analysis by SDS-PAGE (12.5% (w/v)) and autoradiography.

cholinesterases = conditions: by cholinesterases; cited from earlier work
endogenous BACH1 = target: T1, endogenous BACH1 (Homo sapiens, UniProt Q9BX63); assay: Co-immunoprecipitation of BRCA1 BRCTs and BACH1 in transfected U2OS cells; assay type: cell-based; conditions: U2OS cells transfected with myc-tagged BRCA1 construct; anti-myc immunoprecipitation, anti-BACH1 blot
T1 construct: endogenous in cells; host or cells: U2OS cells (BACH1 endogenous; the BRCA1 fragment transfected from pcDNA3 with FuGene6)
T1 sequence (Q9BX63 1-1249): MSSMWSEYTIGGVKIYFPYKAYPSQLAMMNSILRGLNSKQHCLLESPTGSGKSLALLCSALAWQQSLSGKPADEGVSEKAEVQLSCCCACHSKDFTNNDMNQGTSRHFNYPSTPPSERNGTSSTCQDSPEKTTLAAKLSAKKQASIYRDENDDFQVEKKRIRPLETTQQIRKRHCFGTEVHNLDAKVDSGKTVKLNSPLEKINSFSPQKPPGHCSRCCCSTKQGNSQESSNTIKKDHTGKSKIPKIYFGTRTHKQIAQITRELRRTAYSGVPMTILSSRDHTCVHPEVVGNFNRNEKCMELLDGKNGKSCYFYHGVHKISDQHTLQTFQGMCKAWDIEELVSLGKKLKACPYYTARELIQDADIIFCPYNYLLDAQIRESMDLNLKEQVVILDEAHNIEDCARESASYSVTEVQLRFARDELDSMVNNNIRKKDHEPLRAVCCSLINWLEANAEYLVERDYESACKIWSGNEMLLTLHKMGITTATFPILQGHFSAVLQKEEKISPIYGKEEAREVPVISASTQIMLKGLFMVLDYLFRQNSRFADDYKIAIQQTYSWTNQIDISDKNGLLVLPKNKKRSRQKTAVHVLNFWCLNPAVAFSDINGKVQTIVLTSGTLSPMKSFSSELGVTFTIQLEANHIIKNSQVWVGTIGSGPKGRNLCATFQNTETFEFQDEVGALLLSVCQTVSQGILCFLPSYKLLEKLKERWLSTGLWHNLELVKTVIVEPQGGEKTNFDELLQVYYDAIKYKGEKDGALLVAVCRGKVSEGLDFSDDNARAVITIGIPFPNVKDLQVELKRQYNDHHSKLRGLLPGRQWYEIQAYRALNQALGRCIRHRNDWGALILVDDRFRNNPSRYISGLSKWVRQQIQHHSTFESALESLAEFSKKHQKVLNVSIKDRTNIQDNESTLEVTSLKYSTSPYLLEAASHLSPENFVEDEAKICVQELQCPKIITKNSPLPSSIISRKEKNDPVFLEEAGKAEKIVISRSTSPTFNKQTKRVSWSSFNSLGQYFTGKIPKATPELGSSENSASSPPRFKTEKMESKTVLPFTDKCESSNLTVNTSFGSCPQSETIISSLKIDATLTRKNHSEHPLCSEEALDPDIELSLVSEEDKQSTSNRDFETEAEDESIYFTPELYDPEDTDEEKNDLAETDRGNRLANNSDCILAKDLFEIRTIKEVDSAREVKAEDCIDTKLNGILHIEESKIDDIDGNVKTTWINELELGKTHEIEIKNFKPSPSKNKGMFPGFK
Procedure: U2OS cells were grown to 50% confluency in 100 cm^2 dishes and transfected with the myc-tagged wild-type or mutant BRCA1 BRCT constructs (residues 1313-1863) (SEQ ID NO.: 6) using FuGene6 transfection reagent (Roche) according to manufacturer's protocol. Cells were collected 30 hrs following transfection, lysed in lysis buffer (50 mM Tris-HCl (pH7.6), 150 mM NaCl, 1.0% NP-40, 5 mM EDTA, 2 mM DTT, 8 μg/mL AEBSF, 8 μg mL^−1 aprotinin, 8 μg mL^−1 leupeptin, 2 mM Na3VO4, 10 mM NaF and the phosphatase inhibitors microcystin and okadaic acid). Lysates containing equal amounts of protein (3 mg) was incubated with 3 μL of a mouse anti-myc antibody (Cell Signaling) for 2 hr at 4° C. and then 10 μL of protein G-sepharose beads (Sigma-Aldrich) were added and samples incubated for an additional 2 hr at 4° C. Beads were washed four times with lysis buffer, bound proteins eluted in SDS-PAGE sample buffer, analysed on 6% polyacrylamide gels, transferred to PVDF membrane, and detected by blotting with rabbit anti-BACH1 antibody. A portion of the lysates were also run and blotted with the anti-BACH1 antibody and the anti-myc antibody to further ensure equal protein loading.

[2] = target: T2, BACH1 phosphopeptide spot array (Homo sapiens); assay: Peptide filter array (spot blot) with GST-BRCA1 BRCTs; assay type: binding; conditions: 0.25 μM GST-BRCA1 BRCTs M1775R, 10 times the protein of wild type
T2 construct: made in house; host or cells: bacteria (pGEX clone, IPTG induction)
Procedure: An ABIMED peptide arrayer with a computer controlled Gilson diluter and liquid handling robot was used to synthesize peptides onto an amino-PEG cellulose membrane using N-α-FMOC-protected amino acids and DIC/HOBT coupling chemistry. The membranes were blocked in 5% (w/v) milk in Tris-buffered saline containing 0.1% (v/v) Tween-20 (TBS-T) for 1 hr at room temperature, incubated with 0.025 μM GST-BRCA1 BRCTs or 0.25 μM GST-BRCA1 BRCTs M1775R (residues 1633-1863) in 5% (w/v) milk, 50 mM Tris-HCl (pH 7.6), 150 mM NaCl, 2 mM EDTA, 2 mM DTT for 1 hr at room temperature and washed four times with TBS-T. The membranes were then incubated with anti-GST conjugated HRP (Amersham) in 5% (w/v) milk/TBS-T for 1 hr at room temperature, washed five times with TBS-T, and binding analysed by ECL (Perkin-Elmer).

U2OS cells = assay: Immunofluorescence: localization and nuclear foci formation of myc-tagged BRCA1 tandem BRCT domains; assay type: cell-based; conditions: for co-localization with anti-pSer/pThr-Gln epitope antibody staining / nuclear foci formation after DNA damage: U2OS cells, 10 Gy γ-irradiation; for co-localization with anti-pSer/pThr-Gln epitope antibody staining: 2 hrs; for nuclear foci formation after DNA damage: 2 hrs later permeabilized, fixed and stained
Procedure: U2OS cells were seeded onto 18 mm^2 coverslips and transfected with the BRCA1 BRCT construct (residues 1313-1863) and various mutants using FuGene6 transfection reagent (Roche) according to manufacturer's protocol. Thirty hours following transfection, the cells were either treated with 10 Gy of ionizing radiation or mock irradiated and allowed to recover for 120 minutes. Cells were fixed in 3% (v/v) paraformaldehyde/2% (w/v) sucrose for 15 min at RT and permeabilized with a 0.5% (v/v) Triton X-100 solution containing 20 mM Tris-HCl (pH 7.8), 75 mM NaCl, 300 mM sucrose, and 3 mM MgCl2 for 15 min at RT. When necessary, proteins were extracted after IR treatment as described previously. In brief, cells were incubated with extraction buffer (10 mM PIPES pH6.8, 100 mM NaCl, 300 mM sucrose, 3 mM MgCl2, 1 mM EGTA, 0.5% (v/v) Triton X-100) for 5 minutes on ice followed by incubation with extraction stripping buffer (10 mM Tris-HCl pH 7.4, 10 mM NaCl, 3 mM MgCl2, 0.5% (v/v) Triton X-100) for 5 minutes on ice followed by successive washes in ice cold PBS. Slides were fixed as above, stained with primary antibodies at 37° C. for 20 min, then stained with a anti-mouse or anti-rabbit secondary antibody for 20 min (Molecular Probes) at 37° C. Primary antibodies used were mouse anti-myc (Cell Signaling) and rabbit anti-(pSer/pThr)Gln (Cell Signaling). Images were collected on a Axioplan2 microscope (Carl Zeiss) and processed using OpenLab software (Improvision).

| Molecule | binding to phosphorylated peptide [1] | co-localization with anti-pSer/pThr-Gln epitope antibody staining (U2OS cells) | nuclear foci formation after DNA damage (U2OS cells) | further results |
| --- | --- | --- | --- | --- |
| R1699Q: BRCA1 tandem BRCT domain mutant detected in breast cancer patients (SEQ ID NO.: 14) | retained a small degree of binding | – | – | binding to non-phosphorylated peptide [1]: weak phospho-independent binding; also recorded: bound to both phosphorylated and non-phosphorylated peptides |
| C[C@H]1C[C@@H]2[C@H]([C@@H](O)C[C@@]3(C)[C@H]2CC[C@]3(O)C(=O)COC(=O)CCC(=O)[O-])[C@@]2(C)C=CC(=O)C=C12.[Na+] [Methylprednisolone sodium succinate ester] | – | – | – | hydrolysis in vivo to free methylprednisolone (cholinesterases): rapidly and extensively hydrolysed |
| M1775R: cancer-associated BRCA1 tandem BRCT domain mutant (SEQ ID NO.: 10) | complete loss of phosphopeptide binding | less co-localization with pSer/pThr-Gln staining foci than the wild-type protein | also formed punctate nuclear foci, although these were slightly reduced in number; also recorded: can still form nuclear foci after DNA damage | in vivo interaction with full-length endogenous BACH1 (endogenous BACH1): completely loses the ability to interact with wild-type BACH1; binding to BACH1 phosphopeptide in which the +3 Phe is mutated to Asp or Glu [2]: bind weakly; also recorded: binds weakly to phosphopeptides with altered motif specificity |
| 5382InsC: BRCA1 frameshift mutation that results in a stop codon at position 1829 (SEQ ID NO.: 22) | complete loss of phosphopeptide binding | – | – | – |
| G1738E: cancer-linked BRCA1 tandem BRCT domain mutant (SEQ ID NO.: 17) | complete loss of phosphopeptide binding | – | – | – |
| Y1853X: BRCA1 BRCT mutant which truncates the last 11 residues (SEQ ID NO.: 21) | complete loss of phosphopeptide binding | – | – | – |

Now from value to molecule, other results behind:

| binding to phosphorylated peptide [1] | Molecule | co-localization with anti-pSer/pThr-Gln epitope antibody staining (U2OS cells) | nuclear foci formation after DNA damage (U2OS cells) | further results |
| --- | --- | --- | --- | --- |
| complete loss of phosphopeptide binding | P1749R: cancer-linked BRCA1 tandem BRCT domain mutant (SEQ ID NO.: 18) | – | – | – |
| clearly bind | Wild-type BRCA1 tandem BRCT domains: myc-tagged human BRCA1 BRCT construct, residues 1313-1863, with SV40 nuclear localization sequence; GST fusion of residues 1633-1863 for the filter array | largely co-localized | demonstrated sharp punctate nuclear foci | binding to non-phosphorylated peptide [1]: not non-phosphorylated peptides; in vivo interaction with full-length endogenous BACH1 (endogenous BACH1): easily detected |
| completely abolished the interaction | S1655A/K1702M: phosphopeptide-binding double mutant of BRCA1 tandem BRCT domains (SEQ ID NO.: 20) | completely failed to co-localize | only faint staining with a very fine granular pattern | nuclear foci, in words (U2OS cells; un-irradiated U2OS cells, Triton X-100 extracted prior to fixation): no foci were observed |
